Test: molar heat capacity at constant pressure
Details: Liquid, Flow calorimetry

CCOC(F)(C(F)(F)C(F)(F)C(F)(F)F)C(F)(C(F)(F)F)C(F)(F)F (centres undefined) [2-trifluoromethyl-3-ethoxydodecafluorohexane]
molar heat capacity at constant pressure [J/K/mol]
Details	100 kPa	5000 kPa	10000 kPa	15000 kPa
248.45 K	309.34	304.79	300.64	300.23
254.4 K	329.22	325.49	320.94	319.28
264.24 K	362.35	358.21	354.07	351.17
273.51 K	393.82	390.92	387.19	380.98
283.77 K	428.61	428.19	426.12	414.53
294.36 K	470.02	463.8	461.73	456.35
304.12 K	490.31	485.34	484.1	476.23
313.92 K	531.72	528.41	526.75	516.81
323.65 K	565.26	559.05	547.87	543.31
333.47 K	587.21	578.1	571.47	565.68
343.39 K	629.04	620.75	612.88	606.67
353.38 K	669.2	656.78	653.88	649.74

O [water]
molar heat capacity at constant pressure [J/K/mol]
Details	100 kPa	5000 kPa	10000 kPa	15000 kPa
294.2 K	–	–	73.7	–
294.24 K	74.96	74.89	–	–
294.27 K	–	–	–	74.67
303.93 K	75.43	–	–	–
303.97 K	–	75.34	–	76.01
303.98 K	–	–	75.05	–
313.68 K	76.44	–	75.93	–
313.69 K	–	76.02	–	75.83
323.43 K	76.28	75.84	75.47	74.96
333.33 K	75.9	75.47	75.23	75.11
343.28 K	76.31	75.95	75.29	75.07
353.25 K	–	75.84	75.63	75.25
353.26 K	76.04	–	–	–

CCOC(F)(F)C(F)(F)C(F)(F)C(F)(F)F [1-ethoxy-1,1,2,2,3,3,4,4,4-nonafluorobutane]
Details	molar heat capacity at constant pressure [J/K/mol]
245.62 K, 100 kPa	307.66
245.63 K, 10000 kPa	295.52
245.64 K, 5000 kPa	299.74
245.64 K, 15000 kPa	286.54
254.42 K, 100 kPa	317.7
254.44 K, 5000 kPa	310.04
254.44 K, 10000 kPa	305.81
254.44 K, 15000 kPa	297.89
264.28 K, 100 kPa	328.53
264.29 K, 10000 kPa	319.55
264.3 K, 5000 kPa	321.66
264.3 K, 15000 kPa	307.4
274.14 K, 100 kPa	337.24
274.16 K, 10000 kPa	328.26
274.17 K, 5000 kPa	332.49
274.17 K, 15000 kPa	318.23
283.97 K, 100 kPa	343.58
283.98 K, 10000 kPa	340.67
283.99 K, 5000 kPa	338.83
283.99 K, 15000 kPa	333.02
293.9 K, 100 kPa	365.5
293.92 K, 10000 kPa	356.52
293.93 K, 5000 kPa	360.75
293.93 K, 15000 kPa	344.64
303.85 K, 100 kPa	373.69
303.85 K, 10000 kPa	364.71
303.86 K, 5000 kPa	368.93
303.86 K, 15000 kPa	356.52
313.79 K, 100 kPa	389.8
313.9 K, 10000 kPa	377.91
313.91 K, 5000 kPa	385.04
313.91 K, 15000 kPa	369.2
323.6 K, 100 kPa	393.76
323.62 K, 10000 kPa	384.78
323.63 K, 5000 kPa	389
323.63 K, 15000 kPa	384.51
333.28 K, 100 kPa	407.23
333.29 K, 5000 kPa	402.47
333.29 K, 10000 kPa	398.25
333.29 K, 15000 kPa	399.04
343.51 K, 100 kPa	419.9
343.52 K, 10000 kPa	410.92
343.53 K, 5000 kPa	414.88
343.53 K, 15000 kPa	407.49
353.61 K, 100 kPa	431.79
353.62 K, 10000 kPa	422.81
353.63 K, 5000 kPa	426.77
353.63 K, 15000 kPa	420.43

— the NIST ThermoML archive (doi:10.1016/j.fluid.2014.03.017)
